Data published in ChEMBL document CHEMBL4507328, “Data for DCP probe BAY-390” (2021).
The source made the active and inactive calls. The rule behind the calls is not given here.

What was measured:
[1] = target: D(4) dopamine receptor (Homo sapiens) (UniProt P21917); details: Compound concentration 10.0 uM
[2] = target: Short transient receptor potential channel 5 (Homo sapiens, UniProt Q9UL62); test: TRP selectivity screen (TRPC5)
[3] = target: Short transient receptor potential channel 6 (Homo sapiens, UniProt Q9Y210); test: TRP selectivity screen (TRPC6)
Short transient receptor potential channel 6, sequence (Q9Y210 whole entry): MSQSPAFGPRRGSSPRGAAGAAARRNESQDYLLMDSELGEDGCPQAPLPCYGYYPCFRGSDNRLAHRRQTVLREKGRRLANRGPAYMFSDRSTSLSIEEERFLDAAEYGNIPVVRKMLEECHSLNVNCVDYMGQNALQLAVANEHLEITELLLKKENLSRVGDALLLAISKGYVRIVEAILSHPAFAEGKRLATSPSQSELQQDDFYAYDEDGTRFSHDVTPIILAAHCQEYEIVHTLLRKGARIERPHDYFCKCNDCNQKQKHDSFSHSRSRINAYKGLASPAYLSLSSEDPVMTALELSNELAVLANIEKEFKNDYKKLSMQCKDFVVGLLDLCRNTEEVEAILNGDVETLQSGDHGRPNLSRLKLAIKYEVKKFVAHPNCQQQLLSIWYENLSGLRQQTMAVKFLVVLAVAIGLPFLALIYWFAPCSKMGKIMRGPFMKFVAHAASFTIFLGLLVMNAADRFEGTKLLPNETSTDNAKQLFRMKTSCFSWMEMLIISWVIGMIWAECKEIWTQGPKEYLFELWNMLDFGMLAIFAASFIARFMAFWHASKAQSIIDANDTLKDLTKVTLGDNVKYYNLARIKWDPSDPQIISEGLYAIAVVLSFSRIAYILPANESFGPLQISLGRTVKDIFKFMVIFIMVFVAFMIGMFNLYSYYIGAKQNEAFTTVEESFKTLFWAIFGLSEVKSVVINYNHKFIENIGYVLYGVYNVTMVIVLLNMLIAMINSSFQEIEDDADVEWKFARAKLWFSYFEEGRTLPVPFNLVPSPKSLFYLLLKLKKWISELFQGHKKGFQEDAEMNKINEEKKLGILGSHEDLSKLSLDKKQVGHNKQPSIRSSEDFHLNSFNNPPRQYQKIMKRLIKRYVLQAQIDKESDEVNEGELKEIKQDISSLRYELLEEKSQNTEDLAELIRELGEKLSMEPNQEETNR

[4] = target: Histamine H1 receptor (Homo sapiens) (UniProt P35367); details: Compound concentration 10.0 uM
Histamine H1 receptor (Homo sapiens), sequence (P35367 whole entry): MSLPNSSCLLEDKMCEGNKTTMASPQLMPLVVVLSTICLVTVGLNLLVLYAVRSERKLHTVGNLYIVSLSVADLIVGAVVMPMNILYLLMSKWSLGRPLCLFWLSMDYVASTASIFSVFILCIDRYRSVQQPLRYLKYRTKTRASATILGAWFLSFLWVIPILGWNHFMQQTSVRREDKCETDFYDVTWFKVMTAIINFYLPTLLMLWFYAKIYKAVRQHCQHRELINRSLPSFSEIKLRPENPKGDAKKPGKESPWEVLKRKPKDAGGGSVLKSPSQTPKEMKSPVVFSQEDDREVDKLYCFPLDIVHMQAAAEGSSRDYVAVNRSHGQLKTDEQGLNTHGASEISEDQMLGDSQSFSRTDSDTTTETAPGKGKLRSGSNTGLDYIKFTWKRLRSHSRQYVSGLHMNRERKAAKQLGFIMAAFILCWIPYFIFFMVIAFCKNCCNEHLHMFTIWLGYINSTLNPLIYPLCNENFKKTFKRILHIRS

[5] = target: Transient receptor potential cation channel subfamily A member 1 (Homo sapiens, UniProt O75762); test: FLIPR Ca2+ assay (human […])
[6] = target: GABA-A receptor; anion channel (Rattus norvegicus) (UniProt O09028+P15431+P18506+P18508+P19969+P20236+P23574+P23576+P28471+P28473+P30191+P62813+P63079+P63138+Q91ZM7+Q9ES14); details: Compound concentration 10.0 uM
[7] = target: T1, Alpha-1A adrenergic receptor (Homo sapiens) (UniProt P35348); details: Compound concentration 10.0 uM
T1 sequence (whole entry): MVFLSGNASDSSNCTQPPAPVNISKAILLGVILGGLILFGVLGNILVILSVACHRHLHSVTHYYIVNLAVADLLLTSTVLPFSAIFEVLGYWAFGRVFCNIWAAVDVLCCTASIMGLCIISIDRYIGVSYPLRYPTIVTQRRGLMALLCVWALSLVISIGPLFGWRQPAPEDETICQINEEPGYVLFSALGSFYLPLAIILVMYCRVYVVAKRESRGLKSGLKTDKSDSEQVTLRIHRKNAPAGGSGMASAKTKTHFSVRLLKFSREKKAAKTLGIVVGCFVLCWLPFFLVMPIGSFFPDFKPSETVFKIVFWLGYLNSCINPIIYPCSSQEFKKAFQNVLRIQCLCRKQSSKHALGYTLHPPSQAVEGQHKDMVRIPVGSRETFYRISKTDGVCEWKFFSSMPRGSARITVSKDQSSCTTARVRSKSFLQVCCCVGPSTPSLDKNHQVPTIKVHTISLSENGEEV

[8] = target: Alpha-1B adrenergic receptor (Homo sapiens) (UniProt P35368); details: Compound concentration 10.0 uM
[9] = target: T2, 5-hydroxytryptamine receptor 1A (Homo sapiens) (UniProt P08908); details: Compound concentration 10.0 uM
T2 sequence (whole entry): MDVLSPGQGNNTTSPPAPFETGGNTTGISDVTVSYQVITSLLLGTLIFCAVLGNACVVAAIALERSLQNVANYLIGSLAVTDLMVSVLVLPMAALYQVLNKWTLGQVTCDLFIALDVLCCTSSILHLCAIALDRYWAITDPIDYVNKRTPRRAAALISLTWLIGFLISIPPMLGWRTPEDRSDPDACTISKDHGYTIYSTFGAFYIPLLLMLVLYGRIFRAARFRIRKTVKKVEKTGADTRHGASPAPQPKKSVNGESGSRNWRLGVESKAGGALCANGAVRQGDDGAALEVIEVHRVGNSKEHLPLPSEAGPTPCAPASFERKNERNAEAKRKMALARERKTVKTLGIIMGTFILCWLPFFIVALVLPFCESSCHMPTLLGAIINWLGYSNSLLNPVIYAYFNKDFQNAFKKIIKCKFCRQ

[10] = target: Sigma intracellular receptor 2 (Homo sapiens) (UniProt Q5BJF2); details: Compound concentration 10.0 uM
Sigma intracellular receptor 2 (Homo sapiens), sequence (Q5BJF2 whole entry): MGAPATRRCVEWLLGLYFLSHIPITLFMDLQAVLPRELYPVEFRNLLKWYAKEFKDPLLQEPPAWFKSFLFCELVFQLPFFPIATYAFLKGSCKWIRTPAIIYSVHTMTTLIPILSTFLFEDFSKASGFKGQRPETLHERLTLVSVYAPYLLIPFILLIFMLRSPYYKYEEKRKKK

[11] = target: T3, 5-hydroxytryptamine receptor 2C (Homo sapiens) (UniProt P28335); details: Compound concentration 10.0 uM
T3 sequence (whole entry): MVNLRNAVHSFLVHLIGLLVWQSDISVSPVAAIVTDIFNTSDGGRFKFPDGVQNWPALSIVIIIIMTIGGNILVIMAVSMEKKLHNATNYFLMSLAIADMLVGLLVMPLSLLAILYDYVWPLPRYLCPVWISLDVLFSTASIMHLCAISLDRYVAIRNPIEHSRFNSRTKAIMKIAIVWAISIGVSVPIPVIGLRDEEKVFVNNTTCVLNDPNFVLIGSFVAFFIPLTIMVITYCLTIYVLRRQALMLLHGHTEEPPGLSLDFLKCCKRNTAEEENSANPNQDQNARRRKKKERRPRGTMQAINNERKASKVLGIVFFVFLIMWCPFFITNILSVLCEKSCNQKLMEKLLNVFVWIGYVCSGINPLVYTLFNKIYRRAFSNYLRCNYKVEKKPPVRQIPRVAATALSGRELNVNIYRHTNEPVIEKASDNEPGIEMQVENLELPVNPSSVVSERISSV

[12] = target: Beta-2 adrenergic receptor (Homo sapiens) (UniProt P07550); details: Compound concentration 10.0 uM
[13] = target: Muscarinic acetylcholine receptor M3 (Homo sapiens) (UniProt P20309); details: Compound concentration 10.0 uM
[14] = target: Alpha-1D adrenergic receptor (Homo sapiens) (UniProt P25100); details: Compound concentration 10.0 uM
Alpha-1D adrenergic receptor (Homo sapiens), sequence (P25100 whole entry): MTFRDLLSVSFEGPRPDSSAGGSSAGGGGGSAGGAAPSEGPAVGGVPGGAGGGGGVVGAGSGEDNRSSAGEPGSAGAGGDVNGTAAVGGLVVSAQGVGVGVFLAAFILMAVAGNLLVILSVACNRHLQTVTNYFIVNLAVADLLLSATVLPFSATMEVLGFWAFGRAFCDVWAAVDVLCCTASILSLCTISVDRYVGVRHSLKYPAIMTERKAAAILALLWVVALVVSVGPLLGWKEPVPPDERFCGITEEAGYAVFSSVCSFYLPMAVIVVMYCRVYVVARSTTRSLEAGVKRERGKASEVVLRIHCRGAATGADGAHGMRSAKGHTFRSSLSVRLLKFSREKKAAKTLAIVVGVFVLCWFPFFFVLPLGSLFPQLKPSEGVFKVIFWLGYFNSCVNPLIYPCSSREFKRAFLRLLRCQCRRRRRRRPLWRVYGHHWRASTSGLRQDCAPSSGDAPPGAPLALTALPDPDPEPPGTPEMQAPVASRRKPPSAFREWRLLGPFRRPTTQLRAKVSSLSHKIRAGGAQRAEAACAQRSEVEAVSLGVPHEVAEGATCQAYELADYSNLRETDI

[15] = target: Delta-type opioid receptor (Homo sapiens) (UniProt P41143); details: Compound concentration 10.0 uM
[16] = target: 5-hydroxytryptamine receptor 3A (Homo sapiens) (UniProt P46098); details: Compound concentration 10.0 uM
5-hydroxytryptamine receptor 3A (Homo sapiens), sequence (P46098 whole entry): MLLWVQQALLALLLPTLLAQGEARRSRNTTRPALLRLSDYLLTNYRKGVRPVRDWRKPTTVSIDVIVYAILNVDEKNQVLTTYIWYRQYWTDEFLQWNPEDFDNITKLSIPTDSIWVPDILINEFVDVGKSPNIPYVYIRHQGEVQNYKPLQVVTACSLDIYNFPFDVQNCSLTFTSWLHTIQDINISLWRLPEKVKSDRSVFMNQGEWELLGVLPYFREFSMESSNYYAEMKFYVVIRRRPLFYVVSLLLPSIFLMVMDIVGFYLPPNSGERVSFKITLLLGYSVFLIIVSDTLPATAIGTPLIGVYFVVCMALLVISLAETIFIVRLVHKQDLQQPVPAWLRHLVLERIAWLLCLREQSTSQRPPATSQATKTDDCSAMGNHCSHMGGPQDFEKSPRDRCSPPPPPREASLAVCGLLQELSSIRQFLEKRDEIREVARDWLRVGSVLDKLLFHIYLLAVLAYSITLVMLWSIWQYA

[17] = target: T4, Muscarinic acetylcholine receptor M2 (Homo sapiens) (UniProt P08172); details: Compound concentration 10.0 uM
T4 sequence (whole entry): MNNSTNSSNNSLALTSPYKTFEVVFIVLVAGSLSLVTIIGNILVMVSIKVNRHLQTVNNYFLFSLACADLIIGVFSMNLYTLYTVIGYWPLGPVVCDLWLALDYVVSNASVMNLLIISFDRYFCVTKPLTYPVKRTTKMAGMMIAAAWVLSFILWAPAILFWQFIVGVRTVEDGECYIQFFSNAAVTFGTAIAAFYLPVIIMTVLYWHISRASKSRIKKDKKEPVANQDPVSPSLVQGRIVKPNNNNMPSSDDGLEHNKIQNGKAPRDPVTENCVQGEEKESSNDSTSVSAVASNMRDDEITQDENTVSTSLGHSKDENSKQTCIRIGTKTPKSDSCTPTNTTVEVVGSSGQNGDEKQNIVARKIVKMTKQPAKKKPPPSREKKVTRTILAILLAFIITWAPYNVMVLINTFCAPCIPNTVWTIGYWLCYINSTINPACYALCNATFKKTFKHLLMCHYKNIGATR

[18] = target: Sodium-dependent serotonin transporter (Homo sapiens) (UniProt P31645); details: Compound concentration 10.0 uM
Sodium-dependent serotonin transporter (Homo sapiens), sequence (P31645 whole entry, looked up): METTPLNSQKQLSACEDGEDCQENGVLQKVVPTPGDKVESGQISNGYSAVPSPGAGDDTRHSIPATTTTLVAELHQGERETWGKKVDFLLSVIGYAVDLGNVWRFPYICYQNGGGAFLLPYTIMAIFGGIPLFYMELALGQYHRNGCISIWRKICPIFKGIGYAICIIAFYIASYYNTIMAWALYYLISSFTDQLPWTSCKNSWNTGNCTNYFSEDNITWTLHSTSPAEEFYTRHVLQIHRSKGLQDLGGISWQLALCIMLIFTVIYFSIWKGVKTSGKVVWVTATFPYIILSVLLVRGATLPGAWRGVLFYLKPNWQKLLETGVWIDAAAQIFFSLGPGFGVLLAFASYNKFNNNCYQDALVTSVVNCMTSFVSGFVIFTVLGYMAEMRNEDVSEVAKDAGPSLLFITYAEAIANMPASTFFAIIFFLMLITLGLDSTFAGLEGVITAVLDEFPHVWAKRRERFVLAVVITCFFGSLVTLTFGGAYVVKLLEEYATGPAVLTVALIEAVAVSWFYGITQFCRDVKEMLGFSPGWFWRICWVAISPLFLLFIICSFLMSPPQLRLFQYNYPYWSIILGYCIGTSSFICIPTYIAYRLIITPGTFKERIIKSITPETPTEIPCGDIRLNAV

[19] = target: D(3) dopamine receptor (Homo sapiens) (UniProt P35462); details: Compound concentration 10.0 uM
D(3) dopamine receptor (Homo sapiens), sequence (P35462 whole entry): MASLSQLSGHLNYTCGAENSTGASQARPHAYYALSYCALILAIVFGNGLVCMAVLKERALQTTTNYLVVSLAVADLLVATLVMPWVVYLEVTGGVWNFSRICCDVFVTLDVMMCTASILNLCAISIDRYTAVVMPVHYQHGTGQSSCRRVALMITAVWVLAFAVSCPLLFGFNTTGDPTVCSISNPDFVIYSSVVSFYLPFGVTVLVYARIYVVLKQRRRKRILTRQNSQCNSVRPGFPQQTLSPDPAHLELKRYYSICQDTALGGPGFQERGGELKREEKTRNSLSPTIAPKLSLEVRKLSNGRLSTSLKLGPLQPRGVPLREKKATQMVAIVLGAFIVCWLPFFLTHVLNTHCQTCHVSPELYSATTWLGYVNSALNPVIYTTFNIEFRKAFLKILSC

[20] = target: Transient receptor potential cation channel subfamily A member 1 (Rattus norvegicus, UniProt Q6RI86); test: FLIPR Ca2+ assay (rat TRPA1)
Transient receptor potential cation channel subfamily A member 1 (Rattus norvegicus, UniProt Q6RI86), sequence (Q6RI86 whole entry): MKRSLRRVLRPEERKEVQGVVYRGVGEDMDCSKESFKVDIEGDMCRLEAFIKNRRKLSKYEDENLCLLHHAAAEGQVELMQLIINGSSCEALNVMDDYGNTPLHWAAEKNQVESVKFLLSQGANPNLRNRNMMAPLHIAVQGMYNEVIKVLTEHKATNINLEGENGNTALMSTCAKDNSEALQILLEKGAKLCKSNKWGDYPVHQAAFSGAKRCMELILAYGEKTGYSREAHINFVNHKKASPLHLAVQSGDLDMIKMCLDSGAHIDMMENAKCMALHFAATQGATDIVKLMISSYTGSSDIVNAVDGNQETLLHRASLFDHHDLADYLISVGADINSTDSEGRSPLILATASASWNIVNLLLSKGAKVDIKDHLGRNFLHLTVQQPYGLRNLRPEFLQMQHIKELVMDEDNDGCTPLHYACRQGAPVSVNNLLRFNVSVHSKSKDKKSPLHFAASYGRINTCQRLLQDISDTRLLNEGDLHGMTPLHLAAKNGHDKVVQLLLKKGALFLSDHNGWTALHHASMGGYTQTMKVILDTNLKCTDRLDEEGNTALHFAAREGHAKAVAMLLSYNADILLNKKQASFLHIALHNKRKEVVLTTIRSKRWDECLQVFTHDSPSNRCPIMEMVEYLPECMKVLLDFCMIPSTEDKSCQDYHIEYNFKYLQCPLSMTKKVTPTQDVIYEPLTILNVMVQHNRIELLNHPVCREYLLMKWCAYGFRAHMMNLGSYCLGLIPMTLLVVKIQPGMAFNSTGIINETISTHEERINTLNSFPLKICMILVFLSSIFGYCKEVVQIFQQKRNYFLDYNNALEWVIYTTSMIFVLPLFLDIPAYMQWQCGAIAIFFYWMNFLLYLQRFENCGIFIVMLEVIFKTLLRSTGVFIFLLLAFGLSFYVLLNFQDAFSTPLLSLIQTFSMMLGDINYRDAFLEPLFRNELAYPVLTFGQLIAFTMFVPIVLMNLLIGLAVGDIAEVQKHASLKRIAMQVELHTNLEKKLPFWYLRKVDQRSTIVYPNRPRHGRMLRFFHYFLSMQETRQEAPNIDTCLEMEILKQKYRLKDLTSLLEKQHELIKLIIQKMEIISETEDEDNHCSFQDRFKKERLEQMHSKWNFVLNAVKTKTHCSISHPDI

Row | Structure (SMILES) | inhibition [1] [%] | IC50 [2] | IC50 [3] | inhibition [4] [%] | IC50 [5] | inhibition [6] [%] | inhibition [7] [%] | inhibition [8] [%] | inhibition [9] [%] | inhibition [10] [%] | inhibition [11] [%] | inhibition [12] [%] | inhibition [13] [%] | inhibition [14] [%] | inhibition [15] [%] | inhibition [16] [%] | inhibition [17] [%] | inhibition [18] [%] | inhibition [19] [%] | IC50 [20]
1 | O[C@]1(C(F)(F)F)CCCC[C@H]1Nc1ccc(F)cc1 [BAY-390] | -4.08 | 5.6 µM (not active) | > 25 µM (not active) | 25.7 | 0.016 µM (active) | 4.57 | -8.22 | 8.7 | -1.95 | 8.95 | 23.4 | 7.94 | 4.73 | -2.73 | 21.4 | 39 | -2.71 | -0.01 | -6.61 | 0.063 µM (active)
2 | COc1cc(N[C@@H]2CCCC[C@]2(O)C(F)(F)F)ccc1F [BAY-9897] | 6.32 | 10 µM (not active) | > 30 µM (not active) | -8.03 | > 25 µM (not active) | 5.42 | 2.69 | 0.41 | 6.99 | 27.8 | -0.76 | 22.2 | 25.6 | -4.64 | 14.4 | 11.6 | 3.81 | 15.6 | -0.75 | > 25 µM (not active)
